Laboratory results published in PMC12490008 (Environmental Science & Technology, 2025).
*1 amine or outer side, *2 acyl side, *3 side chain or, on linkers, in order; H or OH if unused. Where a SMILES comes first, the peptide text is derived from it. Bridges are numbered along the chain shown (N, C = ends). [ ]: non-standard residue; d: D form. Adda = CO[C@@H](Cc1ccccc1)[C@@H](C)/C=C(C)/C=C/[C@H](N[*:1])[C@H](C)C(=O)[*:2]; dAsp(3S-Me) = C[C@H](C(=O)[*:3])[C@@H](N[*:1])C(=O)[*:2]; d(γGlu) = O=C(O)[C@@H](CCC(=O)[*:2])N[*:1]; Abu = CC[C@H](N)C(=O)O; NMeDha = C=C(NC)C(=O)O

Experiments:
[1] = tested on: River Chriesbach biofilm suspension (100%, 10%, 1%)
[2] = tested on: River Chriesbach biofilm suspensions
[3] = tested on: River Chriesbach biofilm suspension
[4] = tested on: River Chriesbach biofilm suspension (100%)
[5] = tested on: River Chriesbach river water
[6] = tested on: River Mönschaltorfer Aa biofilm suspension
[7] = tested on: River Glatt biofilm suspension
[8] = tested on: lake Greifensee water and three rivers

C=C1C(=O)N[C@H](C)C(=O)N[C@@H](CC(C)C)C(=O)N[C@@H](C(=O)O)[C@H](C)C(=O)N[C@@H](CC)C(=O)N[C@@H](/C=C/C(C)=C/[C@H](C)[C@H](Cc2ccccc2)OC)[C@H](C)C(=O)N[C@@H](C(=O)O)CCC(=O)N1C [MC-LAba] ([Abu][Adda][d(γGlu)][NMeDha][dA]L[dAsp(3S-Me)]-OH; lactam N-7)
1d removal, 1% biofilm [1]: -6% | 1d removal, 10% biofilm [1]: 13% | 1d removal, 100% biofilm [1]: -8% | Half-lives (h), 1% biofilm [1]: n.d.(decay) | Half-lives (h), 10% biofilm [1]: n.d.(decay) | Half-lives (h), 100% biofilm [1]: n.d.(decay) | biodegradability in biofilm suspensions (in words) [2]: remained rather stable | removal within 3 days [3]: < 13% | 1.3d removal, 2% metabolite [4]: -7% | 1.3d removal, 10% metabolite [4]: -2% | 1.3d removal, 100% metabolite [4]: 8% | Half-lives (h), 100% metabolite [4]: n.d. (decay) | 1d removal, River water [5]: -11% | Half-lives (h), River water [5]: n.d.(decay)

O=C(O)c1ccccc1 [benzoic acid, reference compound]
removal of benzoic acid after 1 day, 1% density [1]: 62% | removal of benzoic acid after 1 day, 10% density [1]: 77% | removal of benzoic acid after 1 day, 100% density [1]: 97% | removal of benzoic acid after 8 h [6]: 41% | removal of benzoic acid after 24 h [6]: 84% | removal of benzoic acid after 8 h [3]: 72% | removal of benzoic acid after 24 h [3]: 100% | removal of benzoic acid within 4 h [4]: 94-100% | removal of benzoic acid after 8 h [7]: 3% | removal of benzoic acid after 24 h [7]: 75% | biotransformation during incubation in surface waters [8]: degraded within hours

[D-Asp3]MC‐(H4)YR [[D-Asp3]MC-(H4)YR]
1d removal, 1% biofilm [1]: 6% | 1d removal, 10% biofilm [1]: 31% | 1d removal, 100% biofilm [1]: 94% | Half-lives (h), 100% biofilm [1]: 7.6 h | Lag-time (h), 1% biofilm [1]: 108.8 h | Lag-time (h), 10% biofilm [1]: 56.4 h | Lag-time (h), 100% biofilm [1]: 5.8 h | half-life, 1% biofilm [1]: 5.0 days | half-life, 10% biofilm [1]: 2.6 days | biodegradability in biofilm suspensions (in words) [2]: biodegradable | removal within 3 days [3]: 86% | 1.3d removal, 2% metabolite [4]: 100% | 1.3d removal, 10% metabolite [4]: 100% | 1.3d removal, 100% metabolite [4]: 94% | Half-lives (h), 100% metabolite [4]: 11.0 h | Lag-time (h), 100% metabolite [4]: 1.1 h | 1d removal, River water [5]: -24% | Lag-time (h), River water [5]: 168.0 h | degradation in ambient river water [5]: detectable degradation | half-life, river water [5]: 7.1 days
